This passage reports Ki and IC50 results from ChEMBL document CHEMBL5360519, “Chemical similarities and differences among inhibitors of nitric oxide synthase, arginase and dimethylarginine dimethylaminohydrolase-1: Implications for the design of novel enzyme inhibitors modulating the nitric oxide pathway” (Bioorg Med Chem, 2022).

pIC50, pKi: −log10 of the molar value.

The target of one assay is T1, Nitric oxide synthase 3 (Homo sapiens, UniProt P29474).
T1 sequence (P29474 whole entry): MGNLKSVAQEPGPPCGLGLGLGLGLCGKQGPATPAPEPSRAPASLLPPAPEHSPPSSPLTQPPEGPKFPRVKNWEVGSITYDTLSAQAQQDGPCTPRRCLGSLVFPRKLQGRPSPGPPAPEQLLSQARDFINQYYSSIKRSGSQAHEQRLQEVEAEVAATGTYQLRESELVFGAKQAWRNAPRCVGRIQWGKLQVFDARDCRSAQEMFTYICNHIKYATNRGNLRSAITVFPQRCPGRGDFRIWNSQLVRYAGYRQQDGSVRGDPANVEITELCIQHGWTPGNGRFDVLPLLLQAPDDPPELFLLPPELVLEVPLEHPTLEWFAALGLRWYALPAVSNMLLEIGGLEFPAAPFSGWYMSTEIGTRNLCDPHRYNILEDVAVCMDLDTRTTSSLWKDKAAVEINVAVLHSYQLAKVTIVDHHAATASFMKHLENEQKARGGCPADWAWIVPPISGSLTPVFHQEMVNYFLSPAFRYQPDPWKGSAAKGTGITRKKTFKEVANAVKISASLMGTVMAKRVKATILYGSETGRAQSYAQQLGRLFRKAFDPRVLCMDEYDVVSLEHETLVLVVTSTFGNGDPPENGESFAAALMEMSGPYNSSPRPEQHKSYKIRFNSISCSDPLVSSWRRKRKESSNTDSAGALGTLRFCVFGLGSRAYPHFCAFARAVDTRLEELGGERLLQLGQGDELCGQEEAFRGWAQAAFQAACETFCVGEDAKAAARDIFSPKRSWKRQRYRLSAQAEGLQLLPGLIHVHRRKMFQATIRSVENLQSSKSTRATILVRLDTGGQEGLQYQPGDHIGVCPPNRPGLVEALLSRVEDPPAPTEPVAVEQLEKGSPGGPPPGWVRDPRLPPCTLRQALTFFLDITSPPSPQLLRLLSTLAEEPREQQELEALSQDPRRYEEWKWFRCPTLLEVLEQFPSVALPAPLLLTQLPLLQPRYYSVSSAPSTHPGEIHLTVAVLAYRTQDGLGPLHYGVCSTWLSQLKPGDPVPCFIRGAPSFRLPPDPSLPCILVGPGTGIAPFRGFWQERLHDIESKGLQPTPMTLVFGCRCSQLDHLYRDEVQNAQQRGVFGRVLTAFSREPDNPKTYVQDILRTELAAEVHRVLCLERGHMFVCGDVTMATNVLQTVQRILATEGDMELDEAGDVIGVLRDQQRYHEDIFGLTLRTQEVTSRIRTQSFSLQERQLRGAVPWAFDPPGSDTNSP
The experiment in a line: Inhibition of human eNOS overexpressed in baculovirus infected Sf21 cells assessed as inhibition constant.

The target in assay [1] is Nitric oxide synthase, inducible (Homo sapiens, UniProt P35228). The experiment in a line: Inhibition of human iNOS overexpressed in baculovirus infected Sf21 cells assessed as inhibition constant.
Nitric oxide synthase, inducible, sequence (P35228 whole entry): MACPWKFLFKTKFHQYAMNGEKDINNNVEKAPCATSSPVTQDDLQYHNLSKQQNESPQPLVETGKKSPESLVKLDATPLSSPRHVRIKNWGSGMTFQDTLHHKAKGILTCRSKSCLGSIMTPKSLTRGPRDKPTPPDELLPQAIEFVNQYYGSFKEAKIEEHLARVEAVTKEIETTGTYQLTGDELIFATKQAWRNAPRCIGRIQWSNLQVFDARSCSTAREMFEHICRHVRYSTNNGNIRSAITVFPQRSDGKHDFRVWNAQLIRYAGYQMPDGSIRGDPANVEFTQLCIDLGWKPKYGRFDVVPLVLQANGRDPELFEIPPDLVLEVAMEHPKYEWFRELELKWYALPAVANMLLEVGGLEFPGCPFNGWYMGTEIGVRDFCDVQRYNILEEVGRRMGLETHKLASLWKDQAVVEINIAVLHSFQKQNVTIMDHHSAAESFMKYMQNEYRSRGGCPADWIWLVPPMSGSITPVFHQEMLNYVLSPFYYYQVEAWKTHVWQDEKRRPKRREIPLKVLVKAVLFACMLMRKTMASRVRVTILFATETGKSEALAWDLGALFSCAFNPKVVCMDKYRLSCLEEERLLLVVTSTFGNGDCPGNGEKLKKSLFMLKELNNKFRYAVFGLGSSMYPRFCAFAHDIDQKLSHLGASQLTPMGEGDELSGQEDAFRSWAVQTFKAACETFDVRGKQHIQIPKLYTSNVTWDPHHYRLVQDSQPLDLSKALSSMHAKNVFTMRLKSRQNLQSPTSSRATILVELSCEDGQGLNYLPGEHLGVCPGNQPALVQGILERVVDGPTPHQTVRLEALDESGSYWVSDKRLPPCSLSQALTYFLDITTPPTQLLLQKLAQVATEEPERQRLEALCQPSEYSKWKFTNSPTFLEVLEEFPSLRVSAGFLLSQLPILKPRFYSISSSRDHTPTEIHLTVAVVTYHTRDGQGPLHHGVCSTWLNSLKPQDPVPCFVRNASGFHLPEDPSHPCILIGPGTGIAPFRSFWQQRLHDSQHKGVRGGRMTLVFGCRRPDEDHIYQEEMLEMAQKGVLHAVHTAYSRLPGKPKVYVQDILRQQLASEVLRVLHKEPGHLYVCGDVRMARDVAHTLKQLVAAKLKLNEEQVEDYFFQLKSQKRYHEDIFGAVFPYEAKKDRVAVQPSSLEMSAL
Assay [2] is described as follows: Inhibition of recombinant rat liver arginase expressed in Escherichia coli assessed as inhibition constant.
In assay [3] the target is N(G),N(G)-dimethylarginine dimethylaminohydrolase 1 (Homo sapiens, UniProt O94760). The experiment in a line: Inhibition of human DDAH1 assessed as inhibition constant by microplate reader assay.
N(G),N(G)-dimethylarginine dimethylaminohydrolase 1, sequence (O94760 whole entry): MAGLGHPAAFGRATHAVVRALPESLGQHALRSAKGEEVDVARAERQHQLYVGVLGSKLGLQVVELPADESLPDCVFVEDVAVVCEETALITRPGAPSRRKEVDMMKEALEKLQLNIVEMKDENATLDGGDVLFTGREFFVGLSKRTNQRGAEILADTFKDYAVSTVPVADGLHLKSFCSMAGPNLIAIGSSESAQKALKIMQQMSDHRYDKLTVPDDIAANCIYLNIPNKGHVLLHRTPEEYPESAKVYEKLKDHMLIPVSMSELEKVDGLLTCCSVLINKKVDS
A short description of assay [4]: Inhibition of human arginase in human HT-29 cells assessed as inhibition constant. The class given is cell-based.
Assay [5] concerns the target T2, Arginase-1 (Rattus norvegicus, UniProt P07824).
T2 sequence (P07824 whole entry): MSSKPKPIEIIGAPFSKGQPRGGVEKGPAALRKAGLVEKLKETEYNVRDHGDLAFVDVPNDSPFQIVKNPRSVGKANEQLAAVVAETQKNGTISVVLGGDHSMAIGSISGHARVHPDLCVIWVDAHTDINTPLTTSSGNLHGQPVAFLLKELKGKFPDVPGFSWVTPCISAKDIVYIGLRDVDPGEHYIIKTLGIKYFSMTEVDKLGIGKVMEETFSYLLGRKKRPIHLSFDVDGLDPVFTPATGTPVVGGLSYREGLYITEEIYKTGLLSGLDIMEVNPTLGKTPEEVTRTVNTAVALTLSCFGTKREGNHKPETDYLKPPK
The experiment in a line: Inhibition of N-terminal hexa-histidine tagged thrombin-cleavable rat arginase 1 expressed in Escherichia coli DE3 cells measured after 90 mins by colorimetric urea assay.

The target in assay [6] is T2, Arginase-1. The experiment in a line: Inhibition of Sprague-Dawley rat liver arginase 1 assessed as inhibition constant. In kind it is tissue-based.
Assay [7] can be described thus: Inhibition of bovine arginase. The arrangement: species or system Bos taurus.
Assay [8] has as its target T3, Arginase-1 (Mus musculus, UniProt Q61176).
T3 sequence (Q61176 whole entry): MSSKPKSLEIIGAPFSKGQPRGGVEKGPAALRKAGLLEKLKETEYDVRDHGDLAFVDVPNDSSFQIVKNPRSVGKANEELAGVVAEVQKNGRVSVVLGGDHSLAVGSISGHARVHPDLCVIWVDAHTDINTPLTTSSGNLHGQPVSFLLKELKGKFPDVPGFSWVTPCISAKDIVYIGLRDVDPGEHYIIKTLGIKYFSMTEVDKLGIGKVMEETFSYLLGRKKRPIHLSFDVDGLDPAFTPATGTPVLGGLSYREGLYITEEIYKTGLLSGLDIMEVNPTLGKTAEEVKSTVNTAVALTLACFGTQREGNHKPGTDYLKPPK
The experiment in a line: Inhibition of mouse arginase 1.

Assay [9] addresses T2, Arginase-1. The experiment in a line: Inhibition of Sprague-Dawley rat liver arginase 1. The class given is tissue-based.

The pKi is the negative decadic logarithm of the Ki, by convention in mol/L. Take `C[C@H]1CC(=N)N[C@@H]2[C@H](Cl)[C@@H]21` (racemic): the pKi at Nitric oxide synthase 3 was 7.74; in [1] it was 8.70.
As for `N[C@@H](CSCCB(O)O)C(=O)O`, in assay [2], the pKi is 6.40.
With `N[C@@H](CCSN=O)C(=O)O`, the pKi in assay [3] is 3.16.
As to `NCCCC(N)(C(=O)O)C(F)F` (racemic) [EFLORNITHINE], the negative logarithm of the Ki (pKi) in assay [4] is 2.41.
In the case of `N[C@@H](CCCCB(O)O)C(=O)O`, the negative-log Ki (pKi) at Arginase-1 [5] is 6.96.
Broadly, the pIC50 is the negative decadic logarithm of the IC50, by convention in mol/L. A high value points to a low IC50. Regarding `N=C(NO)NCCC[C@H](N)C(=O)O`, the pKi at Arginase-1 [6] was 5.00; in [7], 4.52. Besides, the pIC50 against Arginase-1 [8] is 3.35; on Arginase-1 [9], 3.82.
